Results as given in patent EP4786487A1, “PEPTIDE” (Peptidream Inc, priority 2023, dated 2025).
Read-outs that look alike come from different tables or passages of the source. Starred links: 1 amine or outer side, 2 acyl side, 3 side chain; linkers in the order of their positions; H or OH if unused. Positions of bridges follow the written chain, without caps; N, C: chain ends. Non-standard residues stand in square brackets, D forms with d. Residues, ends and D or L forms follow the SMILES beside them. Groups on a side chain read outwards from the residue. *: point of attachment. Ala(1-CH2CO2H-4-piperidyl) = N[C@@H](CC1CCN(CC(=O)O)CC1)C(=O)O; X4 = CN(C)C(=O)Cn1cc(-c2ccc(C[C@H](N[*:1])C(=O)[*:2])cc2)cn1; Phe(3-OCH2COOH) = N[C@@H](Cc1cccc(OCC(=O)O)c1)C(=O)O; Phe(4-COOH) = N[C@@H](Cc1ccc(C(=O)O)cc1)C(=O)O; Piperazinyl(4-CH2COOH) = O=C(O)CN1CCN(*)CC1; Gly(Nα-CH2CH2CONH2) = NC(=O)CCNCC(=O)O; Gly(decyl) = CCCCCCCCCC[C@H](N)C(=O)O; Gly(N(CH2)3COOH) = O=C(O)CCCNCC(=O)O; X1 = CCCCCCC[C@H](N[*:1])C(=O)[*:2]; NMeCha = CN[C@@H](CC1CCCCC1)C(=O)O; NMeF = CN[C@@H](Cc1ccccc1)C(=O)O; 4Pal = N[C@@H](Cc1ccncc1)C(=O)O; Cha = N[C@@H](CC1CCCCC1)C(=O)O; Ahp(2) = CCCCC[C@H](N)C(=O)O; NMeA = CN[C@@H](C)C(=O)O; CO = O=C([*:1])[*:2]; NEtG = CCNCC(=O)O; Sar = CNCC(=O)O

How the values were obtained:
Myostatin = target: T1, Myostatin (Homo sapiens, UniProt O14793); test: HepG2 reporter gene assay, Evaluation Procedure (2): 2-concentrations assay, myostatin inhibition; assay type: cell-based
T1 construct: active myostatin (also called mature myostatin) is a homodimer consisting of two C-terminal growth factor domains; purchased R&D systems 788-G8/CF
T1 sequence (O14793 267-375): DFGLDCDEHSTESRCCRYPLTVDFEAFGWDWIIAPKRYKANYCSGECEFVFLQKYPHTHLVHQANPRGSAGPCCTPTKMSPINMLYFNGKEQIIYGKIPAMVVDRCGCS
How it was run: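 Myostatin inhibition was measured in a luciferase reporter assay using HepG2 cells transfected with a pGL3 vector containing 12 CAGA repeats upstream of luciferase. After 20 to 24 hours with 10 ng/mL myostatin, cells received One-Glo:PBS (1:1) at 100 µL/well, were shaken for 5 min, and 20 µL/well was moved to 384-well plates and read on an Envision 2104.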

GDF-11 = target: T2, GDF-11 (Homo sapiens, UniProt O95390); test: HepG2 reporter gene assay, Evaluation Procedure (2): 2-concentrations assay, GDF-11 inhibition; assay type: cell-based
T2 construct: purchased R&D systems 1958-GD-G8/CF
T2 sequence (O95390 299-407): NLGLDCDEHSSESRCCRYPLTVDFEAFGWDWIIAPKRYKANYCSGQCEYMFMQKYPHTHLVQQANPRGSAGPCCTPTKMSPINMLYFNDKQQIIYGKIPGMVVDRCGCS
How it was run: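 HepG2 cells carrying the transfected pGL3(CAGA)12-luc reporter, a pGL3 vector with luciferase placed downstream of 12 CAGA repeats, were stimulated with GDF-11 at a final 10 ng/mL together with test peptide. Blank wells received no GDF-11 and no peptide. Plates were incubated 20 to 24 hours at 37°C with 5% CO2. Luminescence from One-Glo substrate was read to calculate percent inhibition.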

[1] = peptide 30nM, Myostatin 10 ng/mL, HepG2, read-out: Myostatin Inhibition 30nM
[2] = peptide 100nM, Myostatin 10 ng/mL, HepG2, read-out: Myostatin Inhibition 100nM
[3] = HepG2, peptide 30nM, GDF-11 10 ng/mL, read-out: GDF11 Inhibition 30nM
[4] = HepG2, peptide 100nM, GDF-11 10 ng/mL, read-out: GDF11 Inhibition 100nM

Compound	inhibition at 0.03 µM (Myostatin; [1])	inhibition at 0.1 µM (Myostatin; [2])	inhibition at 0.03 µM (GDF-11; [3])	inhibition at 0.1 µM (GDF-11; [4])	inhibition at 0.03 µM (Myostatin; HepG2, read-out: Myostatin Inhibition 30nM)	inhibition at 0.1 µM (Myostatin; HepG2, read-out: Myostatin Inhibition 100nM)	inhibition at 0.03 µM (GDF-11; HepG2, read-out: GDF11 Inhibition 30nM, peptide 30nM, GDF-11 10 ng/mL)	inhibition at 0.1 µM (GDF-11; HepG2, read-out: GDF11 Inhibition 100nM, peptide 100nM, GDF-11 10 ng/mL)
CCCCCCC[C@@H]1NC(=O)[C@H](Cc2ccccc2)N(C)C(=O)[C@H](CCCNC(=N)N)NC(=O)[C@H](Cc2ccc(C(=O)O)cc2)NC(=O)[C@H](CC2CCN(CC(=O)O)CC2)NC(=O)CN(C)C(=O)[C@H]([C@@H](C)CC)NC(=O)[C@H](Cc2ccccc2)N(C)C(=O)[C@H](Cc2ccc(O)cc2)NC(=O)[C@H](Cc2c[nH]c3ccccc23)NC(=O)[C@H](C)NC(=O)CN(CCCC(=O)O)C(=O)CSC[C@H](C(=O)O)NC(=O)[C@H](Cc2ccccc2)N(C)C(=O)[C@H](C)N(C)C1=O [Myostatin_99_v233] ({CH2CO}-[Gly(N(CH2)3COOH)]AWY[NMeF]I[Sar][Ala(1-CH2CO2H-4-piperidyl)][Phe(4-COOH)]R[NMeF][X1][NMeA][NMeF][dC]-OH; thioether N-15)	50%	85%	8%	0%	–	–	–	–
CCCCCCC[C@@H]1NC(=O)[C@H](Cc2ccccc2)N(C)C(=O)[C@H](CCCNC(=N)N)NC(=O)[C@H](Cc2ccc(C(=O)O)cc2)NC(=O)[C@H](Cc2ccncc2)NC(=O)CN(C)C(=O)[C@H]([C@@H](C)CC)NC(=O)[C@H](Cc2ccccc2)N(C)C(=O)[C@H](Cc2ccc(O)cc2)NC(=O)[C@H](Cc2c[nH]c3ccccc23)NC(=O)[C@H](C)NC(=O)CN(CCCC(=O)O)C(=O)CSC[C@H](C(=O)N[C@@H](CC2CCN(CC(=O)O)CC2)C(N)=O)NC(=O)[C@H](Cc2ccccc2)N(C)C(=O)[C@H](C)N(C)C1=O [Myostatin_99_v235] ({CH2CO}-[Gly(N(CH2)3COOH)]AWY[NMeF]I[Sar][4Pal][Phe(4-COOH)]R[NMeF][X1][NMeA][NMeF][dC][Ala(1-CH2CO2H-4-piperidyl)]-NH2; thioether N-15)	91%	99%	0%	0%	–	–	–	–
CCCCC[C@@H]1NC(=O)[C@H](Cc2ccccc2)N(C)C(=O)[C@H](CCCNC(=N)N)NC(=O)[C@H](Cc2ccc(C(=O)O)cc2)NC(=O)[C@H](Cc2cccc(OCC(=O)O)c2)NC(=O)CN(C)C(=O)[C@H]([C@@H](C)CC)NC(=O)[C@H](Cc2ccccc2)N(C)C(=O)[C@H](Cc2ccc(O)cc2)NC(=O)[C@H](Cc2c[nH]c3ccccc23)NC(=O)[C@H](C)NC(=O)[C@H](C)N(C)C(=O)CSC[C@H](C(=O)O)NC(=O)[C@H](Cc2ccccc2)N(C)C(=O)[C@H](C)N(C)C1=O [Myostatin_99_v240] ({CH2CO}-[NMeA]AWY[NMeF]I[Sar][Phe(3-OCH2COOH)][Phe(4-COOH)]R[NMeF][Ahp(2)][NMeA][NMeF][dC]-OH; thioether N-15)	69%	91%	0%	0%	–	–	–	–
CCCCC[C@@H]1NC(=O)[C@H](Cc2ccccc2)N(C)C(=O)[C@H](CCCNC(=N)N)NC(=O)[C@H](Cc2ccc(C(=O)O)cc2)NC(=O)[C@H](Cc2cccc(OCC(=O)O)c2)NC(=O)CN(C)C(=O)[C@H]([C@@H](C)CC)NC(=O)[C@H](Cc2ccccc2)N(C)C(=O)[C@H](Cc2ccc(O)cc2)NC(=O)[C@H](Cc2c[nH]c3ccccc23)NC(=O)[C@H](C)NC(=O)CN(CCC(N)=O)C(=O)CSC[C@H](C(=O)O)NC(=O)[C@H](Cc2ccccc2)N(C)C(=O)[C@H](C)N(C)C1=O [Myostatin_99_v242] ({CH2CO}-[Gly(Nα-CH2CH2CONH2)]AWY[NMeF]I[Sar][Phe(3-OCH2COOH)][Phe(4-COOH)]R[NMeF][Ahp(2)][NMeA][NMeF][dC]-OH; thioether N-15)	18%	58%	0%	0%	–	–	–	–
CCCCCCCCCC[C@@H]1NC(=O)[C@H](CC2CCCCC2)NC(=O)[C@H](CCCNC(=N)N)NC(=O)[C@H](Cc2ccc(C(=O)O)cc2)NC(=O)[C@H](CCCCNC(=O)N2CCN(CC(=O)O)CC2)NC(=O)[C@H]2CCCN2C(=O)[C@H]([C@@H](C)CC)NC(=O)[C@H](CC2CCCCC2)N(C)C(=O)[C@H](Cc2ccc(O)cc2)NC(=O)[C@H](Cc2c[nH]c3ccccc23)NC(=O)[C@@H](CCC(=O)O)NC(=O)[C@H](C)NC(=O)CSC[C@H](C(=O)N2CCN(CC(=O)O)CC2)NC(=O)[C@H](Cc2ccccc2)N(C)C(=O)[C@H](C)N(C)C1=O [Myostatin_99_v247] ({CH2CO}-A[dE]WY[NMeCha]I[dP]K([CO-Piperazinyl(4-CH2COOH)])[Phe(4-COOH)]R[Cha][Gly(decyl)][NMeA][NMeF][dC]-{Piperazinyl(4-CH2COOH)}; thioether N-15)	68%	94%	0%	6%	–	–	–	–
CCCCCCC[C@@H]1NC(=O)[C@H](CC2CCCCC2)NC(=O)[C@H](CCCNC(=N)N)NC(=O)[C@H](Cc2ccc(C(=O)O)cc2)NC(=O)[C@H](CCCCNC(=O)N2CCN(CC(=O)O)CC2)NC(=O)[C@H]2CCCN2C(=O)[C@H]([C@@H](C)CC)NC(=O)[C@H](CC2CCCCC2)N(C)C(=O)[C@H](Cc2ccc(O)cc2)NC(=O)[C@H](Cc2ccc(-c3cnn(CC(=O)N(C)C)c3)cc2)NC(=O)[C@@H](CCC(=O)O)NC(=O)[C@H](C)NC(=O)CSC[C@H](C(=O)N2CCN(CC(=O)O)CC2)NC(=O)[C@H](Cc2ccccc2)N(C)C(=O)[C@H](C)N(C)C1=O [Myostatin_99_v256] ({CH2CO}-A[dE][X4]Y[NMeCha]I[dP]K([CO-Piperazinyl(4-CH2COOH)])[Phe(4-COOH)]R[Cha][X1][NMeA][NMeF][dC]-{Piperazinyl(4-CH2COOH)}; thioether N-15)	–	–	–	–	57%	88%	0%	4%
CCCCCCC[C@@H]1NC(=O)[C@H](Cc2ccccc2)N(C)C(=O)[C@H](CCCNC(=N)N)NC(=O)[C@H](Cc2ccc(C(=O)O)cc2)NC(=O)[C@H](CCCCNC(=O)N2CCN(CC(=O)O)CC2)NC(=O)CN(CC)C(=O)[C@H]([C@@H](C)CC)NC(=O)[C@H](CC2CCCCC2)N(C)C(=O)[C@H](Cc2ccc(O)cc2)NC(=O)[C@H](Cc2c[nH]c3ccccc23)NC(=O)[C@@H](CCC(=O)O)NC(=O)[C@H](C)NC(=O)CSC[C@H](C(=O)N2CCN(CC(=O)O)CC2)NC(=O)[C@H](Cc2ccccc2)N(C)C(=O)[C@H](C)N(C)C1=O [Myostatin_99_v258] ({CH2CO}-A[dE]WY[NMeCha]I[NEtG]K([CO-Piperazinyl(4-CH2COOH)])[Phe(4-COOH)]R[NMeF][X1][NMeA][NMeF][dC]-{Piperazinyl(4-CH2COOH)}; thioether N-15)	21%	61%	0%	0%	–	–	–	–
CCCCCCCCCC[C@@H]1NC(=O)[C@H](CC2CCCCC2)NC(=O)[C@H](CCCNC(=N)N)NC(=O)[C@H](Cc2ccc(C(=O)O)cc2)NC(=O)[C@H](Cc2cccc(OCC(=O)O)c2)NC(=O)CN(C)C(=O)[C@H]([C@@H](C)CC)NC(=O)[C@H](Cc2ccccc2)N(C)C(=O)[C@H](Cc2ccc(O)cc2)NC(=O)[C@H](Cc2c[nH]c3ccccc23)NC(=O)[C@H](C)NC(=O)[C@H](CCCCNC(=O)N2CCN(CC(=O)O)CC2)NC(=O)CSC[C@H](C(=O)N2CCN(CC(=O)O)CC2)NC(=O)[C@H](Cc2ccccc2)N(C)C(=O)[C@H](C)N(C)C1=O [Myostatin_99_v259] ({CH2CO}-K([CO-Piperazinyl(4-CH2COOH)])AWY[NMeF]I[Sar][Phe(3-OCH2COOH)][Phe(4-COOH)]R[Cha][Gly(decyl)][NMeA][NMeF][dC]-{Piperazinyl(4-CH2COOH)}; thioether N-15)	100%	100%	0%	28%	–	–	–	–
CCCCCCCCCC[C@@H]1NC(=O)[C@H](CC2CCCCC2)NC(=O)[C@H](CCCNC(=N)N)NC(=O)[C@H](Cc2ccc(C(=O)O)cc2)NC(=O)[C@H](Cc2cccc(OCC(=O)O)c2)NC(=O)CN(C)C(=O)[C@H]([C@@H](C)CC)NC(=O)[C@H](Cc2ccccc2)N(C)C(=O)[C@H](Cc2ccc(O)cc2)NC(=O)[C@H](Cc2c[nH]c3ccccc23)NC(=O)[C@@H](CCCCNC(=O)N2CCN(CC(=O)O)CC2)NC(=O)[C@H](C)NC(=O)CSC[C@H](C(=O)N2CCN(CC(=O)O)CC2)NC(=O)[C@H](Cc2ccccc2)N(C)C(=O)[C@H](C)N(C)C1=O [Myostatin_99_v260] ({CH2CO}-A[dK]([CO-Piperazinyl(4-CH2COOH)])WY[NMeF]I[Sar][Phe(3-OCH2COOH)][Phe(4-COOH)]R[Cha][Gly(decyl)][NMeA][NMeF][dC]-{Piperazinyl(4-CH2COOH)}; thioether N-15)	100%	100%	37%	75%	–	–	–	–
